Results: PMC11956017, “Design of Benzyl-triazolopyrimidine-Based NADPH Oxidase Inhibitors Leads to the Discovery of a Potent Dual Covalent NOX2/MAOB Inhibitor” (Journal of Medicinal Chemistry, 2025)

Legend:
human NOX1 = biological target: T1, human NOX1 (Homo sapiens, UniProt Q9Y5S8); test: Human NOX1 isolated membranes, Amplex Red/horseradish peroxidase coupled assay; type: biochemical; details: membrane-embedded; 40 μM NADPH; read-out: IC50 on human NOXs, NOX1 (AMPLEX RED)
T1 construct: expressed in transfected cells; host or cells: HEK293 F cells, transient transfection (pEG BacMam vector); isolated membranes; Cytosolic proteins made in E. coli
T1 sequence (Q9Y5S8 1-564): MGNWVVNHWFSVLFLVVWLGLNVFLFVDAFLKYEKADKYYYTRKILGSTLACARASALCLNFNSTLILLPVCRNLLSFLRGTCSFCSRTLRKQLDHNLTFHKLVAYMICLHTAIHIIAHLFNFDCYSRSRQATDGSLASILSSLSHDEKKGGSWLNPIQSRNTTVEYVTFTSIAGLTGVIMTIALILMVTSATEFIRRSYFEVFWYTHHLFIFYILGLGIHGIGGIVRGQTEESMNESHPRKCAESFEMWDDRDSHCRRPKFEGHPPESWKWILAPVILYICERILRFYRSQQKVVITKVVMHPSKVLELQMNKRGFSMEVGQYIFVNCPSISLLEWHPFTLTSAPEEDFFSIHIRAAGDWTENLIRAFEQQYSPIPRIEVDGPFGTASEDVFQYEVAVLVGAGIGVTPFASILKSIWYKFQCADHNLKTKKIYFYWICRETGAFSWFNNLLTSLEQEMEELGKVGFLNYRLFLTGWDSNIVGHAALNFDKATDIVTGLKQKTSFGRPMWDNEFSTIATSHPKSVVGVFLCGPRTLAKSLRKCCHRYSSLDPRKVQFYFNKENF
T1 sequence (P13498 1-195 partner): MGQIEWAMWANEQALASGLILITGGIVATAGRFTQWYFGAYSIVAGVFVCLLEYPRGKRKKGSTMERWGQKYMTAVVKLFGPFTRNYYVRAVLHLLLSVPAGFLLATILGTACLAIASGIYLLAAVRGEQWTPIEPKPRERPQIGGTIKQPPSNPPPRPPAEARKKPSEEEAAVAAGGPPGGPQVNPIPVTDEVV
Description: (§1) Activity assays for IC50 determinations were performed as previously described[40],[42] with modifications for covalent inhibitors. […] The estimated final protein concentrations based on the heme’s absorbance (ε414 nm = 131,000 M^–1 cm^–1) were 10–20 nM. Compounds were incubated for 1 h at 25 °C at varying concentrations, and reactions were initiated with 40 μM NADPH. Fluorescence was measured using a ClarioStar plate reader (excitation 572 nm/emission 583 nm).

human NOX4 = biological target: T2, human NOX4 (Homo sapiens, UniProt Q9NPH5); test: Human NOX4 isolated membranes, Amplex Red/horseradish peroxidase coupled assay; type: biochemical; details: membrane-embedded; 40 μM NADPH; read-out: IC50 on human NOXs, NOX4 (AMPLEX RED)
T2 construct: expressed in transfected cells; host or cells: HEK293 F cells, transient transfection (pTT22 and pYD7 vectors); isolated membranes
T2 sequence (Q9NPH5 1-578): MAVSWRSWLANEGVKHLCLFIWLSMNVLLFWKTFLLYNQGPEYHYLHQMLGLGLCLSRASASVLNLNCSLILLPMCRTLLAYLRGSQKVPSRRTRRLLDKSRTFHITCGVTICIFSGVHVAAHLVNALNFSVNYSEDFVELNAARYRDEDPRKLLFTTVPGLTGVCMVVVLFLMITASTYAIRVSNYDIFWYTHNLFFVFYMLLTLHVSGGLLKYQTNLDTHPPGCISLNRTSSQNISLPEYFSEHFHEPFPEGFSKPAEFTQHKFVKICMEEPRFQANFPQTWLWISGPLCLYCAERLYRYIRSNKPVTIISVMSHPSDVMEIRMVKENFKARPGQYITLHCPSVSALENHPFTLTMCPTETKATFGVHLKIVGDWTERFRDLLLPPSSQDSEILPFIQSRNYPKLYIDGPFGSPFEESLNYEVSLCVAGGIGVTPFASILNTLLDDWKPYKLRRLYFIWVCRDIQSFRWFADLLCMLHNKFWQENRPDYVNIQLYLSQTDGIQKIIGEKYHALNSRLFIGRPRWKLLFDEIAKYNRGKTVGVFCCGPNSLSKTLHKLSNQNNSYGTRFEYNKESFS
T2 sequence (P13498 1-195 partner): T1 sequence (P13498 1-195 partner)
Description: as §1

human NOX5 = biological target: T3, human NOX5 (Homo sapiens, UniProt Q96PH1); test: Human NOX5 isolated membranes, Amplex Red/horseradish peroxidase coupled assay; type: biochemical; details: membrane-embedded; 40 μM NADPH; read-out: IC50 on human NOXs, NOX5 (AMPLEX RED)
T3 construct: expressed in transfected cells; host or cells: HEK293 F cells, transient transfection (pEG BacMam vector); isolated membranes
T3 sequence (Q96PH1 1-719 isoform Q96PH1-4): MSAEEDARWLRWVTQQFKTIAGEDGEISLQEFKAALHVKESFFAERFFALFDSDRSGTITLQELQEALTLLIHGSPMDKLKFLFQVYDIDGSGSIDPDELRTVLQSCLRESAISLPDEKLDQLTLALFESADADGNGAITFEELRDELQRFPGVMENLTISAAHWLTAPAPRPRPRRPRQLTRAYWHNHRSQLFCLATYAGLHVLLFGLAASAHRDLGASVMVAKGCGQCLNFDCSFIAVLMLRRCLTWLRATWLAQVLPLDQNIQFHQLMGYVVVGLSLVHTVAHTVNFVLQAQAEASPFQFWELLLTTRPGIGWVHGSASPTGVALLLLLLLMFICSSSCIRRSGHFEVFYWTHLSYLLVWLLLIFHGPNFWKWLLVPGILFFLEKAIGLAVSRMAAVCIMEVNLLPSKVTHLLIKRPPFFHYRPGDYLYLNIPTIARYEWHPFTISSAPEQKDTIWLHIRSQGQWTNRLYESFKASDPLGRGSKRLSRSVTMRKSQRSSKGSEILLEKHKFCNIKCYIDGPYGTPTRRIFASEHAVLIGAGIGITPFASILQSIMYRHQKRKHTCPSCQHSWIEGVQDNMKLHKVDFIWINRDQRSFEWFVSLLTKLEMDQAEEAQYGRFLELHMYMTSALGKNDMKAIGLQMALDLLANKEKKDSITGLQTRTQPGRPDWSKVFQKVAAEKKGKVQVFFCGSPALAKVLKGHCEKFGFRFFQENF
Description: as §1

NOX2 = NOX2 (Homo sapiens, UniProt P04839); test: Human NOX2 isolated membranes, MCLA assay; type: biochemical; set-up: NOX2 was expressed as native protein in X-CGD PLB-985 cells transduced with the RD114 pseudotyped MFGS-NOX2 vector; expressed in transfected cells; host or cells: X-CGD PLB-985 cells transduced with MFGS-NOX2; isolated membranes; Cytosolic proteins made in E. coli; details: membrane-embedded; 240 μM NADPH; read-out: IC50 on human NOXs, NOX2 (MCLA)
Description: IC50 determinations were performed as described, with the same aforementioned modifications for covalent inhibition. Briefly, 20 μg of NOX2-p22^phox membranes was added to a reaction mix with a 65 mM sodium phosphate buffer (pH 7.0), 0.5 μM FAD, 130 μM LiDS, 160 nM p67^phox, p47^phox, Rac1 Q61L, and 1 μM MCLA or 200 μM bovine cytochrome c. The estimated final protein concentration based on the heme’s absorbance was 60 nM. Compounds were incubated for 1 h at 25 °C, at varying concentrations. The reaction started by adding 240 μM NADPH, and measurements were taken by using a GloMax plate reader (Promega; MCLA) or a Cary 100 UV–vis spectrophotometer (Varian; cytochrome c).

[1] = system: dehydrogenase domain of csNOX5; test: NADPH depletion assay on csNOX5 dehydrogenase domain; type: biochemical, Cylindrospermum stagnale; details: 10 μM inhibitor; 1 μM purified protein, 250 μM NADPH
Description: A series of derivatives were synthesized and tested at 10 μM against the dehydrogenase domain of NOX5 from Cylindrospermum stagnale (C. stagnale, CsNOX5; Figure 2B).
The NADPH depletion assay for IC50 determinations was performed as described[10] with modifications for covalent inhibitors, which require longer incubation times. Briefly, the catalytic activity was measured by monitoring the absorbance at 340 nm with a Cary 100 UV–vis spectrophotometer (Varian). A 1 μM portion of purified protein was added in a final volume of 130 μL of 50 mM HEPES pH 7.5 and supplemented with 300 μM FAD. Inhibitors were added at varying concentrations and incubated for 1 h at 25 °C.

csNOX5 dehydrogenase = test: Intact protein mass spectrometry of csNOX5 dehydrogenase; type: binding, Cylindrospermum stagnale; details: intact protein ESI-qTOF-HRMS
Description: Approximately 1 mg mL^-1 protein was incubated with 300 μM FAD and 1 mM 9a at 4 °C for 1 h. A negative control reaction was performed by adding an equal volume of DMSO. Protein was denatured by adding 1% (v/v) formic acid. Chromatographic separation and mass spectrometry analysis were carried out as previously reported.[10] Analyses were carried out by ESI-qTOF-HRMS on an […] qTOF system (Sciex) embedding a Twin Sprayer ESI probe and coupled with an ExcionLC system (Sciex) controlled by SciexOS software v. 3.0.0. The injection volume was 10 μL (10 μg), and chromatographic separation was carried out with a bioZen WidePore C4 column (a 100 mm length, a 2.1 mm diameter, and a 2.6 μm particle size; Phenomenex).

Row | Structure (SMILES) | IC50 (human NOX1) [µM] | IC50 (human NOX4) [µM] | IC50 (human NOX5) [µM] | IC50 (NOX2) [µM] | % INHIBITION csNOX5 DEHYDROGENASE DOMAIN [1] [%] | covalent binding to csNOX5 dehydrogenase active-site cysteine (csNOX5 dehydrogenase)
1 | CN(Cc1ccccc1)Cc1ccc(Cn2nnc3c(Sc4nc5ccccc5o4)ncnc32)cc1 [Compound 9c, N-(4-((7-(Benzo[d]oxazol-2-ylthio)-3H-[1,2,3]triazolo[4,5-d]pyrimidin-3-yl)methyl)benzyl)-N-methyl-1-phenylmethanamine] | > 100 | > 100 | 14.3 ± 5.9 | 12.9 ± 2.2 |  | 
2 | C=CC(=O)N1CCN(c2ncnc3c2nnn3Cc2ccccc2)CC1 [Compound 7a, 1-(4-(3-Benzyl-3H-[1,2,3]triazolo[4,5-d]pyrimidin-7-yl)piperazin-1-yl)prop-2-en-1-one] |  |  |  |  | 12.0 ± 3.0 | 
3 | c1ccc2oc(Sc3ncnc4c3nnn4Cc3ccc(CN4CCCCC4)cc3)nc2c1 [Compound 9d, 2-((3-(4-(Piperidin-1-ylmethyl)benzyl)-3H-[1,2,3]triazolo[4,5-d]pyrimidin-7-yl)thio)benzo[d]oxazole] | > 100 | > 100 | 4.72 ± 3.7 | 8.1 ± 0.2 |  | 
4 | Nc1ncnc2c1nnn2Cc1ccccc1 [Compound 4, 3-Benzyl-3H-[1,2,3]triazolo[4,5-d]pirimidin-7-amina] |  |  |  |  | 28.0 ± 9.2 | 
5 | C=CC(=O)N1CCC(Nc2ncnc3c2nnn3Cc2ccccc2)CC1 [Compound 7c, 1-(4-((3-Benzyl-3H-[1,2,3]triazolo[4,5-d]pyrimidin-7-yl)amino)piperidin-1-yl)prop-2-en-1-one] |  |  |  |  | 41.2 ± 9.7 | no covalent binding
6 | CS(=O)(=O)Oc1ncnc2c1nnn2Cc1ccccc1 [Compound 2] |  |  |  |  | 15.1 ± 2.5 | 
7 | Oc1ncnc2c1nnn2Cc1ccccc1 [Compound 1, 3-benzyl-3H-[1,2,3]triazolo[4,5-d]pyrimidin-7-ol] |  |  |  |  | 0 | 
8 | CC(=O)N1CCN(c2ncnc3c2nnn3Cc2ccccc2)CC1 [Compound 7b, 1-(4-(3-Benzyl-3H-[1,2,3]triazolo[4,5-d]pyrimidin-7-yl)piperazin-1-yl)etan-1-one] |  |  |  |  | 40.5 ± 14.8 | 
9 | FC1(F)CC2(CCN(Cc3ccc(Cn4nnc5c(Sc6nc7ccccc7o6)ncnc54)cc3)CC2)C1 [Compound 9f, 2-((3-(4-((2,2-Difluoro-7-azaspiro[3.5]nonan-7-yl)methyl)benzyl)-3H-[1,2,3]triazolo[4,5-d]pyrimidin-7-yl)thio)benzo[d]oxazole] | > 100 | > 100 | 46.6 ± 9.1 | 13.8 ± 2.8 |  | 
10 | CC(C)(C)OC(=O)N1CCN(c2ncnc3c2nnn3Cc2ccccc2)CC1 [Compound 5, tert-Butyl 4-(3-benzyl-3H-[1,2,3]triazolo[4,5-d]pyrimidin-7-yl)piperazine-1-carboxylate] |  |  |  |  | 16.9 ± 8.2 | 
11 | C=CC(=O)Nc1ccc(Sc2ncnc3c2nnn3Cc2ccccc2)cc1 [Compound 7d, N-(4-((3-Benzyl-3H-[1,2,3]triazolo[4,5-d]pyrimidin-7-yl)thio)phenyl)acrylamide] |  |  |  |  | 28.1 ± 2.8 | 
12 | Cl.c1ccc(Cn2nnc3c(N4CCNCC4)ncnc32)cc1 [Compound 6, 3-Benzyl-7-(piperazin-1-yl)-3H-[1,2,3]triazolo[4,5-d]pyrimidine Hydrochloride] |  |  |  |  | 7.0 ± 3.2 | 
13 | c1ccc2oc(Sc3ncnc4c3nnn4Cc3ccc(CN4CCOCC4)cc3)nc2c1 [Compound 9e, 2-((3-(4-(Morpholinomethyl)benzyl)-3H-[1,2,3]triazolo[4,5-d]pyrimidin-7-yl)thio)benzo[d]oxazole] | > 100 | > 100 | 2.06 ± 0.96 | 1.9 ± 0.2 |  | 
14 | CCCN(C)Cc1ccc(Cn2nnc3c(Sc4nc5ccccc5o4)ncnc32)cc1 [Compound 9b, N-(4-((7-(Benzo[d]oxazol-2-ylthio)-3H-[1,2,3]triazolo[4,5-d]pyrimidin-3-yl)methyl)benzyl)-N-methylpropan-1-amine] | > 100 | > 100 | > 100 | > 100 |  | 
